Series [1] can be described thus: alamarBlue assay on T. cruzi epimastigotes. The format is cell-based, Trypanosoma cruzi. To be noted: mouse; CC50 J774.A1 / IC50 T. cruzi epimastigotes; read-out: Selectivity Trypanosoma SI (CC50/IC50). Here is the method:
(§1) In a 96-well plate, a serial dilution of the tested derivatives was performed in liver infusion tryptose medium supplemented with 10% heat inactivated fetal bovine serum. Later, 100 µL of 5 × 10^5 cells/mL of epimastigotes was added to each well. Afterwards, 20 µL of alamarBlue® was added to each well, and the plate was maintained at 26 °C for 72 h.
(§2) Cytotoxicity effect of the tested derivatives was conducted using macrophages of the murine cell line J774.A1 (American Type Culture Collection #TIB-67, city, country), as previously described. The cells were maintained in DMEM at 37 °C in a 5% CO2 humidified incubator. All the plates containing alamarBlue® were analyzed using a plate reader EnSpire Multimode Plate Reader® at excitation and emission wavelengths of 570 and 585 nm, respectively (PerkinElmer, ThermoFisher Scientific, Madrid, Spain). The IC50 (concentrations able to inhibit 50% of parasites), IC90 (concentrations able to inhibit 90% of parasites), and CC50 (concentration able to inhibit 50% of murine macrophages) values were determined for each compound by nonlinear regression using GraphPad software.
(Alamar Blue is a resazurin reagent that responds to reducing activity.)

A further series relates to T. cruzi epimastigotes. Briefly: alamarBlue assay on T. cruzi epimastigotes. The format is cell-based, Trypanosoma cruzi. As to conditions: mean ± SD, triplicates. The procedure: as §1, §2
A short description of series [2]: Cytotoxicity assay on murine macrophages (alamarBlue). The format is cell-based. As to conditions: mouse, mean ± SD. The procedure:
as §2

Series [3] in a line: Intramacrophagic stage assay, T. cruzi in J774.A1 macrophages. The format is cell-based, Trypanosoma cruzi. As to conditions: mouse; CC50 J774.A1 / IC50 intracellular T. cruzi; read-out: Selectivity Trypanosoma SI (CC50/IC50). The procedure: (§3) Briefly, in a 96-well plate, macrophages from the J774.A1 cell line were seeded at a final concentration of 2 × 10^5 cells/mL in Dulbecco’s Modified Eagle Medium (DMEM) and maintained at 37 °C in a 5% CO2 atmosphere until fully adhesion. Cells were infected either with L. amazonensis promastigotes (at a ratio of 1:10) or epimastigotes of T. cruzi (at a ratio of 1:7) (macrophage: parasite) and incubated at 37 °C in 5% CO2 for 24 h for Leishmania and 48 h for Trypanosoma. After infection, plates were washed using DMEM to eliminate external parasites. Subsequently, infected macrophages were treated with different concentrations of active compounds for 24 h. Later, macrophages were lysed using 30 μL of medium, Schneider for Leishmania, and in liver infusion tryptose for Trypanosoma, containing 0.05% of sodium dodecyl sulfate (SDS) for 30 s under agitation. Afterwards, 170 μL of the appropriated medium was derivatives added to each well to give a final volume of 200 μL. Subsequently, 10% of alamarBlue® was added into each well and the plate was incubated at 26 °C for 72 h.
as §2

The subject of the next series is intramacrophage T. cruzi. The description is as above. The series is classed as cell-based, Trypanosoma cruzi. As to conditions: Trypanosoma cruzi; intramacrophage stage in J774.A1, 24 h treatment; mean ± SD; read-out: T. cruzi Intracellular IC50. The procedure: as §3, §2
The next series concerns L. chagasi. More on the design: method as in PMID 20428679. As to conditions: cited from earlier work.
The test system of a further series is L. infantum. Further details: method as in PMID 31151304. As to conditions: cited from earlier work.
The nature of series [4]: alamarBlue assay on L. amazonensis promastigotes. The series is classed as cell-based, Leishmania amazonensis. To be noted: mouse; CC50 J774.A1 / IC50 L. amazonensis promastigotes; read-out: Selectivity Leishmania SI (CC50/IC50). The procedure: (§4) The assay was conducted using the alamarBlue® method as previously described. Briefly, promastigotes of L. amazonensis were grown at 26 °C in Schneider’s medium (US Biological, Life sciences) and supplemented with 10% heat-inactivated fetal bovine serum and 0.04% of sodium bicarbonate. In a 96-well microtiter plates (Corning™, Corning, NY, USA) a serial dilutions of thymol derivatives were first prepared, and later, 10^6 parasites/mL were added into each well. Subsequently, 10% of alamarBlue® was added to the entire plate. The plates were incubated for 72 h at 26 °C.
as §2

Series [5] concerns L. amazonensis promastigotes. Briefly: alamarBlue assay on L. amazonensis promastigotes. The format is cell-based, Leishmania amazonensis. To be noted: mean ± SD, triplicates. The procedure: as §4, §2
In series [6] the test system is promastigote stage of L. major. More on the design: method as in PMID 37595813. As to conditions: cited from earlier work.
In series [7] the test system is promastigote stage of L. tropica. More on the design: method as in PMID 37595813. As to conditions: cited from earlier work.
The next series has as its system L. amazonensis. More on the design: method as in PMID 28509873. To be noted: cited from earlier work.
In series [8] the test system is promastigote stage of L. infantum and L. chagasi. Further details: method as in PMID 25281268. As to conditions: cited from earlier work.
Series [9] deals with amastigote stage of L. infantum and L. chagasi. Further details: method as in PMID 25281268. To be noted: cited from earlier work.
Series [10] is described as follows: Intramacrophagic stage assay, L. amazonensis in J774.A1 macrophages. To be noted: mouse; CC50 J774.A1 / IC50 intracellular L. amazonensis; read-out: Selectivity Leishmania SI (CC50/IC50). The format is cell-based, Leishmania amazonensis. The procedure: as §3, with “fully adhesion. […] After infection,” for “fully adhesion. Cells were infected either with L. amazonensis promastigotes (at a ratio of 1:10) or epimastigotes of T. cruzi (at a ratio of 1:7) (macrophage: parasite) and incubated at 37 °C in 5% CO2 for 24 h for Leishmania and 48 h for Trypanosoma. After infection,”, “72 h. Cytotoxicity effect of the tested derivatives was conducted using macrophages of the murine cell line J774.A1 (American Type Culture Collection #TIB-67, city, country), as previously described. The cells were maintained in DMEM at 37 °C in a 5% CO2 humidified incubator.” for “72 h.”

In series [11] the test system is intramacrophage L. amazonensis. The description is as above. The format is cell-based, Leishmania amazonensis. As to conditions: Leishmania amazonensis; intramacrophage stage in J774.A1, 24 h treatment; mean ± SD; read-out: L. amazonensis Intracellular IC50. The procedure: as §3, with “fully adhesion. […] After infection,” for “fully adhesion. Cells were infected either with L. amazonensis promastigotes (at a ratio of 1:10) or epimastigotes of T. cruzi (at a ratio of 1:7) (macrophage: parasite) and incubated at 37 °C in 5% CO2 for 24 h for Leishmania and 48 h for Trypanosoma. After infection,”, “72 h. Cytotoxicity effect of the tested derivatives was conducted using macrophages of the murine cell line J774.A1 (American Type Culture Collection #TIB-67, city, country), as previously described. The cells were maintained in DMEM at 37 °C in a 5% CO2 humidified incubator.” for “72 h.”

The mark [12] stands for this setting: Trypanosoma cruzi, 72 h, epimastigotes, alamarBlue, 72 h at 26 °C, read-out: T. cruzi Epimastigote IC50.
Setting [13] is: Leishmania amazonensis, 72 h, promastigotes, alamarBlue, 72 h at 26 °C, read-out: L. amazonensis Promastigote IC50.
Where [14] appears, read: epimastigotes, alamarBlue, 72 h at 26 °C, read-out: T. cruzi Epimastigote IC50.

Values after ≈ are worked out from the molar mass of the structure shown. Like-named read-outs stand apart in the source and are kept apart here.

Take `O=C(Cn1ccnc1[N+](=O)[O-])NCc1ccccc1` [B, Benznidazole, reference compound]: the selectivity ratio in series [1] came out at 58; in series [3], 148. The 50% inhibitory concentration (IC50) in the series with T. cruzi epimastigotes (setting [12]) was found to be 6.9 ± 0.8 µM; with intramacrophage T. cruzi, 2.7 ± 0.4 µM. Besides, in series [2] (J774.A1 macrophage cell line), the CC50 came out at 399.9 ± 1.4 µM.

`Cc1ccc(C(C)C)c(O)c1` [Compound 1, thymol]: in the series on L. chagasi, the “IC50 against L. chagasi” value was 28.0 µg/mL (≈ 186 µM). Besides, the “IC50 against L. infantum” value with L. infantum was 7.2 µg/mL (≈ 47.9 µM). In addition, the figures for the selectivity ratio in series [4] and in series [1] were greater than 0.9 and greater than 1.5, respectively. Further, the figures for the 50% inhibitory concentration (IC50) (in series [5] (setting [13]); with T. cruzi epimastigotes (setting [12])) were 318 ± 21.4 µM and 206 ± 2.8 µM, respectively. Also, the “activity against promastigote stage of L. major” value in [6] was “inactive”. Further, the “activity against promastigote stage of L. tropica” value in series [7] is “inactive”. In series [2] (J774.A1 macrophage cell line), this compound gave a CC50 greater than 300 µM. Besides, in the series with L. amazonensis, the “IC50 against L. amazonensis” value is 26.8 µg/mL (≈ 178 µM).

As for `CC(=O)Oc1cc(C)ccc1C(C)C` [Derivative 2, thymyl acetate], the “EC50 against promastigote stage” value in series [8] was 9.07 µg/mL. Further, the IC50 (in series [5] (setting [13]); in the series with T. cruzi epimastigotes (setting [12])) was greater than 350 µM in each case. Besides, in series [9], the “EC50 against amastigote stage” value is 10.95 µg/mL.

Consider `Cc1ccc(C(C)C)c(OC(=O)CCl)c1` [Derivative 3, thymyl chloroacetate], for which the figures for the selectivity ratio in series [4] and in series [1] were greater than 3.8 and greater than 6.1, respectively. Moreover, the 50% inhibitory concentration (IC50) in series [5] (Leishmania amazonensis, promastigotes, alamarBlue, 72 h at 26 °C, read-out: L. amazonensis Promastigote IC50) is 78.8 ± 15.9 µM; with T. cruzi epimastigotes (Trypanosoma cruzi, epimastigotes, alamarBlue, 72 h at 26 °C, read-out: T. cruzi Epimastigote IC50) it was 49.5 ± 3.2 µM. The CC50 in series [2] (murine macrophages J774.A1) is greater than 300 µM.

With `Cc1ccc(C(C)C)c(OCC(=O)OC(=O)CCl)c1` [Derivative 4, 2-thymyl-2′-(chloro)-acetic anhydride], the selectivity ratio in series [4] was 0.8; in [1] it was 0.9. Also, the values for the IC50 (in series [5] (setting [13]); in the series on T. cruzi epimastigotes (setting [12])) were 148 ± 10 µM and 124 ± 6 µM, respectively. In addition, in series [2] (J774.A1 macrophage cell line), the CC50 turned out to be 120.9 ± 0.4 µM.

Turning to `CCCC(=O)Oc1cc(C)ccc1C(C)C` [Derivative 5, thymyl butyrate], the selectivity ratio in series [4] and in series [1] was greater than 1.4 in each case. The IC50 in series [5] (setting [13]) was 150 to 250 µM; in [5] (promastigotes, alamarBlue, 72 h at 26 °C, read-out: L. amazonensis Promastigote IC50), 216 ± 7.5 µM; in the series with T. cruzi epimastigotes (setting [12]), 150 to 250 µM; with T. cruzi epimastigotes (setting [14]) it was 211 ± 7.3 µM. The 50% cytotoxic concentration (CC50) in series [2] (J774.A1 macrophage cell line) was greater than 300 µM.

`Cc1ccc(C(C)C)c(OC(=O)CCC(=O)O)c1` [Derivative 6, thymyl hemisuccinate]: the IC50 (in [5] (setting [13]); in the series on T. cruzi epimastigotes (setting [12])) was greater than 350 µM each time.

Take `Cc1ccc(C(C)C)c(OC(=O)c2ccccc2)c1` [Derivative 7, thymyl benzoate]: the “EC50 against promastigote stage” value in [8] is 8.67 µg/mL (≈ 34.1 µM). In addition, the selectivity ratio is greater than 5.4 in series [4] and greater than 4.5 in series [1]. The IC50 in series [5] (setting [13]) turned out to be 56 ± 5.6 µM; in the series on T. cruzi epimastigotes (setting [12]), 66 ± 1.7 µM. This compound had a CC50 in series [2] (J774.A1 macrophage cell line) greater than 300 µM. In series [9], the “EC50 against amastigote stage” value was 15.09 µg/mL (≈ 59.3 µM).

As to `Cc1ccc(C(C)C)c(OC(=O)c2ccc([N+](=O)[O-])cc2)c1` [Derivative 8, thymyl-4-nitrobenzoate], the values for the selectivity ratio in series [4] and in [1] were greater than 3.9 and greater than 6.8, respectively. Moreover, the half-maximal inhibitory concentration (IC50) in [5] (setting [13]) was 76.4 ± 6.2 µM; with T. cruzi epimastigotes (setting [12]), 50 to 150 µM; in the series with T. cruzi epimastigotes (setting [14]) it was 44.4 ± 2.5 µM. This compound showed a CC50 in [2] (J774.A1 macrophage cell line) greater than 300 µM.

Turning to `Cc1ccc(C(C)C)c(OC(=O)Oc2ccc([N+](=O)[O-])cc2)c1` [Derivative 11, thymyl-4-nitrophenylcarbonate], the values for the selectivity ratio in series [4] and in series [1] were greater than 5.2 and greater than 4.5, respectively. Further, the half-maximal inhibitory concentration (IC50) in series [5] (setting [13]) turned out to be 56.9 ± 7.2 µM; with T. cruzi epimastigotes (setting [12]), 66.9 ± 3.8 µM. For the same compound, in series [2] (J774.A1 macrophage cell line), the CC50 is greater than 300 µM.

Take `Cc1ccc(C(C)C)c(OC(=O)N(C)C)c1` [Derivative 12, thymyl N,N-dimethyl carbamate]: the selectivity ratio in series [4] was greater than 1.3; in [1] it was greater than 1.9. For the same compound, the IC50 is 150 to 250 µM in series [5] (Leishmania amazonensis, 72 h, read-out: L. amazonensis Promastigote IC50, promastigotes, alamarBlue, 72 h at 26 °C); 229 ± 21.4 µM in [5] (read-out: L. amazonensis Promastigote IC50, promastigotes, alamarBlue, 72 h at 26 °C); 150 to 250 µM with T. cruzi epimastigotes (Trypanosoma cruzi, 72 h, read-out: T. cruzi Epimastigote IC50, epimastigotes, alamarBlue, 72 h at 26 °C); 158 ± 2.9 µM in the series on T. cruzi epimastigotes (read-out: T. cruzi Epimastigote IC50, epimastigotes, alamarBlue, 72 h at 26 °C). In series [2] (murine macrophages J774.A1), this compound had a CC50 greater than 300 µM.

`CCCCCCCCCCCCCCCCOP(=O)([O-])OCC[N+](C)(C)C` [M, Miltefosine, reference compound]: the selectivity ratio in [4] worked out at 11.1; in series [10] it was 23.3. Moreover, the IC50 in series [5] (setting [13]) came out at 6.5 ± 0.3 µM; in series [11], 3.1 ± 0.3 µM. In [2] (J774.A1 macrophage cell line), this compound displayed a CC50 of 72.2 ± 8.9 µM.

As usually defined, the IC50 is the concentration that inhibits the measured activity by half. What is called CC50 is the concentration that lowers cell viability or growth by half.

The values above are taken from PMC12024213, “Mechanism Insight of Cell Death Signaling by Thymol Derivatives on Trypanosomatidae Protozoan Parasites” (Antibiotics, 2025).
